Reference: PubChem BioAssay AID687000 (Broad Institute, 2013)
Where “and” joins values, the source holds several entries; their conditions need not be identical. Equal values may be shown once. Calls of active or inactive are those of the source.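 The calls were made as follows: active = fitted dose curve reaches 40% lysis signal rise at or below the highest valid concentration tested for that sample; inconclusive = flat fit between 30% and 70%, or poor curve fit; inactive = signal falls, stays flat within 30%, or no crossing.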

Test system: C. neoformans lysis, adenylate kinase release luminescence, 4 h
Assay: inducers of Cryptococcus neoformans cell lysis, dose response, AK release luminescence, cherry-picks (AID 687000)

Structure (SMILES)	AC40
COC(=O)C1=C(C)N(Cc2ccc(F)cc2)C(=S)NC1c1cccc(Cl)c1 (stereo not given)	2.41 µM and 3.17 µM
C[C@H](CO)N1C[C@H](C)[C@@H](CN(C)C(=O)c2ccncc2)OCCCC[C@H](C)Oc2ccc(NC(=O)Cc3ccccc3)cc2C1=O	> 15 µM (inactive)
COc1ccc(C(=O)NC(=S)Nc2ccccc2N2CCCCC2)cc1[N+](=O)[O-]	3.29 µM
O=C(NC(=S)Nc1ccccc1N1CCOCC1)c1ccc(Br)cc1	> 15 µM (inactive)
CC(C)NC(=O)N[C@H]1CC[C@@H](CCNC(=O)C2CC2)O[C@H]1CO	> 15 µM (inactive)
O=C(CC1CC1)N1[C@@H]2CN(S(=O)(=O)c3ccccc3)c3ccccc3[C@@H]2[C@@H]1CO	> 16 µM (inactive)
CNC[C@@H]1OCCCC[C@@H](C)Oc2ccc(NC(=O)Nc3ccc4c(c3)OCO4)cc2C(=O)N([C@H](C)CO)C[C@@H]1C	> 15 µM (inactive)
S=C(Nc1cccc(Cl)c1)Nc1ccccc1Oc1ccccc1	> 15 µM (inactive)
S=C(Nc1ccccc1)Nc1cc(Cl)ccc1Oc1ccccc1	> 7.5 µM (inactive)
C[C@@H]1CN([C@H](C)CO)S(=O)(=O)c2ccc(C#CC3CC3)cc2O[C@H]1CN(C)CC1CCOCC1	> 15 µM (inactive)
CCC(=O)N(C)C[C@@H]1Oc2cc(C#CC(C)(C)O)ccc2S(=O)(=O)N([C@H](C)CO)C[C@H]1C	> 15 µM (inactive)
C[C@H]1CN([C@@H](C)CO)C(=O)Cc2cc(N(C)C)ccc2O[C@@H]1CN(C)C(=O)Nc1ccc(C(F)(F)F)cc1	> 15 µM (inactive)
COC(=O)C1=C(C)N(Cc2ccc(Cl)cc2)C(=S)NC1c1cccc(F)c1 (stereo not given)	13.1 µM
COc1ccc(NC(=S)NCc2ccc(Cl)cc2)c(OC)c1	4.16 µM
COC(=O)C1=C(C)N(Cc2ccc(F)cc2)C(=S)NC1c1ccccc1 (stereo not given)	2.68 µM
COC(=O)C1=C(C)N(Cc2ccc(Br)cc2)C(=S)NC1c1ccc(F)cc1 (stereo not given)	4.62 µM and 7.82 µM
COCC(=O)N(C)C[C@H]1Oc2ncc(-c3ccccc3F)cc2C(=O)N([C@@H](C)CO)C[C@H]1C	> 15 µM (inactive)
C[C@@H]1CN([C@@H](C)CO)C(=O)c2cc(NC(=O)C3CC3)ccc2O[C@H]1CN(C)CC1CCCCC1	> 15 µM (inactive)
COc1ccc(CNC(=S)NCc2ccc(OC)cc2)cc1	> 15 µM (inactive)
CC(C)CC1(C)N=C(c2ccccc2)C(=S)N1 (stereo not given)	11.2 µM
COC(=O)C1=C(C)N(Cc2ccc(Br)cc2)C(=S)NC1c1ccc(OC)cc1 (stereo not given)	1.93 µM and 1.57 µM
Cc1noc(C)c1NC(=O)Nc1ccc2c(c1)C(=O)N([C@@H](C)CO)C[C@H](C)[C@H](CN(C)CC1CCCCC1)O2	> 15 µM (inactive)
COc1cccc(NC(=S)NC(=O)Cc2ccc(Cl)cc2)c1	1.03 µM

Structure (SMILES)	AC40
C[C@H]1CN([C@@H](C)CO)S(=O)(=O)c2ccc(Br)cc2O[C@@H]1CN(C)C(=O)CCN1CCCCC1	> 15 µM (inactive)
Cc1cc(C)c(NC(=O)C2CCCN2C(=O)NC2CCCCC2)c(C)c1 (stereo not given)	10.4 µM
CCc1ccc(C(C)NC(=S)NCc2ccc(F)cc2)cc1 (stereo not given)	0.511 µM
C[C@@H]1CCCCO[C@@H](CN(C)C(=O)Nc2cccc3ccccc23)[C@@H](C)CN([C@H](C)CO)C(=O)c2cc(NS(=O)(=O)c3ccccc3)ccc2O1	14.2 µM
COc1ccccc1CNC(=S)NCc1ccc(Cl)cc1	2.03 µM
CCCC(=O)Nc1ccc2c(c1)C(=O)N(C)C[C@H](OC)[C@@H](C)CN(C(=O)c1cccnc1)[C@H](C)CO2	13.7 µM
CC(C)NC(=O)Nc1ccc2c(c1)CC(=O)N([C@@H](C)CO)C[C@@H](C)[C@H](CN(C)C(=O)Nc1ccc3c(c1)OCO3)O2	> 15 µM (inactive)
COc1ccccc1/C=N/NC(=S)NCc1ccco1	> 15 µM (inactive)
CCc1ccc(C(=O)NC(=S)NCc2cccnc2)cc1	8.42 µM
Cc1ccccc1NC(=S)NC(=O)CCc1ccccc1	4.93 µM
C[C@@H]1CCCCO[C@H](CN(C)C(=O)CCCN(C)C)[C@@H](C)CN([C@H](C)CO)C(=O)c2cc(NC(=O)Cc3ccccc3)ccc2O1	> 15 µM (inactive)
Cc1cc(C)c2nc(N3CCN(C(=O)c4cccs4)CC3)sc2c1	2.56 µM
Cc1ccc(S(=O)(=O)N[C@H]2C=C[C@@H](CC(=O)N3CCC(Cc4ccccc4)CC3)O[C@H]2CO)cc1	> 15 µM (inactive)
COc1ccc(C(=O)NC(=S)Nc2ccccc2N2CCOCC2)cc1[N+](=O)[O-]	> 15 µM (inactive)
CCN(Cc1ccccc1)C(=O)COc1ccccc1	> 15 µM (inactive)
O=C(NC(=S)NCC1COc2ccccc2O1)c1ccc(Cl)cc1 (stereo not given)	3.44 µM
COC(=O)C1=C(C)N(Cc2ccccc2)C(=S)N[C@H]1c1ccc(Br)cc1	2.89 µM and 9.81 µM
COC(=O)C1=C(C)N(Cc2ccc(F)cc2)C(=S)NC1c1cccc(Br)c1 (stereo not given)	6.51 µM
COC(=O)C1=C(C)N(Cc2ccccc2)C(=S)NC1c1ccc(Br)cc1 (stereo not given)	2.58 µM
O=C(NCCN1CCCCC1)[C@H]1N[C@H]2c3ccc(-c4ccncc4)c(=O)n3C[C@H]2[C@@H]1CO	12.7 µM
CC(C)C#Cc1ccc([C@@H]2[C@H](CO)N3CCCCN(C(=O)c4ccc5c(c4)OCO5)C[C@@H]23)cc1	> 15 µM (inactive)
O=C(NC(=S)Nc1cccc(F)c1)c1cccc([N+](=O)[O-])c1	3.02 µM
COc1cccc(S(=O)(=O)N(C)C[C@@H]2OCc3ccccc3-c3ccccc3C(=O)N([C@@H](C)CO)C[C@@H]2C)c1	> 15 µM (inactive)

Structure (SMILES)	AC40
Cc1noc(C)c1S(=O)(=O)Nc1ccc2c(c1)C(=O)N([C@@H](C)CO)C[C@@H](C)[C@@H](CN(C)Cc1ccccc1)OCCCC[C@H](C)O2	> 15 µM (inactive)
COC(=O)C1=C(C)N(Cc2ccc(Cl)cc2)C(=S)NC1c1cccc(OC)c1 (stereo not given)	3.04 µM
COC(=O)C1=C(C)N(Cc2ccc(F)cc2)C(=S)NC1c1ccc(F)cc1 (stereo not given)	6.96 µM
Cc1cc(Cl)ccc1NC(=S)NCc1ccc(F)cc1	2.25 µM
COC(=O)C1=C(C)N(Cc2ccccc2)C(=S)NC1c1cccc(Br)c1 (stereo not given)	3.56 µM and > 15 µM (inactive)
COC(=O)C1=C(C)N(Cc2ccccc2)C(=S)NC1c1ccc(Cl)cc1 (stereo not given)	2.45 µM
COCC(=O)NC[C@H]1N[C@H](CO)[C@H]1c1ccc(C2=CCCC2)cc1	> 15 µM (inactive)
COc1ccccc1NC(=S)NCc1ccccc1Cl	7.43 µM
C[C@@H]1CCCCO[C@@H](CN(C)C(=O)Nc2ccc3c(c2)OCO3)[C@@H](C)CN([C@H](C)CO)C(=O)c2cc(NC(=O)Nc3cccc4ccccc34)ccc2O1	> 15 µM (inactive)
Cc1cc(C)c(NC(=O)C2CCCN2CCC(C)C)c(C)c1 (stereo not given)	> 15 µM (inactive)
COC(=O)C1=C(C)N(Cc2ccc(Cl)cc2)C(=S)NC1c1ccc(F)cc1 (stereo not given)	2.23 µM and 3.73 µM
COC(=O)C1=C(C)N(Cc2ccccc2)C(=S)N[C@H]1c1cccc(C(F)(F)F)c1	> 15 µM (inactive)
CCc1nc(N2CCCCC2C)c2oc3ccccc3c2n1 (stereo not given)	1.65 µM
COC(=O)C1=C(C)N(Cc2ccc(F)cc2)C(=S)NC1c1cccc(F)c1 (stereo not given)	14.2 µM and 2.63 µM
COC(=O)C1=C(C)N(Cc2ccc(Cl)cc2)C(=S)NC1c1cccc(Cl)c1 (stereo not given)	2.95 µM
O=C(CN(c1ccc(F)cc1)S(=O)(=O)c1ccccc1)N1CCOCC1	> 15 µM (inactive)
COC(=O)C1=C(C)N(Cc2ccc(F)cc2)C(=S)NC1c1ccc(Cl)cc1 (stereo not given)	> 15 µM (inactive)
CCNC(=O)C[C@H]1CC[C@H](NC(=O)NC2CCCCC2)[C@@H](CO)O1	> 15 µM (inactive)
COC(=O)C1=C(C)N(Cc2ccccc2)C(=S)N[C@H]1c1cccc(F)c1	11.7 µM
O=C(Cc1ccccc1)N[C@H]1C=C[C@@H](CC(=O)N2CCOCC2)O[C@@H]1CO	4.91 µM
COC(=O)C1=C(C)N(Cc2ccccc2)C(=S)NC1c1cccc(OC)c1 (stereo not given)	> 15 µM (inactive) and > 16 µM (inactive)
Cc1cccc(C)c1NC(=O)CN(C)C(=O)C1CCCCC1	> 15 µM (inactive)
O=C(CSc1ncnc2c1cnn2-c1cccc(Cl)c1)NCC1CCCO1 (stereo not given)	> 15 µM (inactive)

Structure (SMILES)	AC40
C[C@H]1CN([C@@H](C)CO)C(=O)Cc2cc(NS(C)(=O)=O)ccc2O[C@@H]1CN(C)Cc1ccc(Cl)c(Cl)c1	> 15 µM (inactive)
CCCCN1C(=S)NC[C@@H]1Cc1ccccc1	5.11 µM
C[C@H](CO)N1C[C@H](C)[C@@H](CN(C)Cc2ccc(-c3ccccc3)cc2)Oc2ccc(NC(=O)Nc3ccc(C(F)(F)F)cc3)cc2C1=O	> 15 µM (inactive)
Cc1cccc2sc(N3CCN(C(=O)c4cccs4)CC3)nc12	> 15 µM (inactive)
C[C@H]1CN([C@@H](C)CO)C(=O)c2cccc(NS(=O)(=O)c3ccc(Cl)cc3)c2O[C@@H]1CN(C)CC1CC1	3.75 µM
S=C(Nc1ccc(Cl)cc1Cl)Nc1ccccc1Oc1ccccc1	3.3 µM
COC(=O)C1=C(C)N(Cc2ccc(Br)cc2)C(=S)NC1c1cccc(Cl)c1 (stereo not given)	1.17 µM
CC(C)NC(=O)Nc1ccc2c(c1)C(=O)N([C@@H](C)CO)C[C@@H](C)[C@@H](CN(C)C(=O)NC(C)C)OCCCC[C@@H](C)O2	> 15 µM (inactive)
Fc1ccccc1NC(=S)NN(Cc1ccccc1)c1ccccc1	5.17 µM
Cc1ccc(C)c(NC(=O)C2(C)CCCN2C(=O)C(C)C)c1 (stereo not given)	7.4 µM
COc1cc(OC)c(N(C)C(=O)c2cn(C)c(=O)c3cc(OC)c(OC)cc23)cc1Cl	> 15 µM (inactive)
Cc1noc(C)c1S(=O)(=O)Nc1ccc2c(c1)CC(=O)N([C@H](C)CO)C[C@H](C)[C@@H](CN(C)S(=O)(=O)c1cn(C)cn1)O2	> 15 µM (inactive)
O=C(NC(=S)Nc1ccccc1N1CCCC1)c1ccc([N+](=O)[O-])cc1	2.09 µM
COC(=O)C1=C(C)N(Cc2ccc(Cl)cc2)C(=S)NC1c1ccc(Br)cc1 (stereo not given)	0.781 µM
Cc1ccc2nc(C)c3c(c2c1)OC(C(C)(Cl)Br)C3 (stereo not given)	> 15 µM (inactive)
S=C(NCCCc1ccccc1)Nc1ccccc1	2.56 µM
C[C@H](CO)N1C[C@H](C)[C@H](CN(C)Cc2ccc(-c3ccccc3)cc2)Oc2c(NC(=O)c3ccncc3)cccc2C1=O	> 15 µM (inactive)
C[C@H](O)C#Cc1ccc2c(c1)O[C@H](CN(C)Cc1ccncc1)[C@H](C)CN([C@H](C)CO)S2(=O)=O	> 15 µM (inactive)
C[C@@H]1CN([C@H](C)CO)C(=O)c2cc(C3=CCCCC3)cnc2O[C@H]1CN(C)C(=O)Cc1cccnc1	> 15 µM (inactive)
O=C(NC(=S)Nc1ccc(Br)cc1)C1CCC1	1.05 µM
C[C@H]1CN([C@@H](C)CO)C(=O)c2ccccc2-c2ccccc2CO[C@H]1CN(C)S(=O)(=O)c1cccc(C#N)c1	> 15 µM (inactive)
